As a reminder, the IC50 is the midpoint of a concentration-inhibition curve. High values mean a need for much substance, low ones inhibition by little substance.

The structures appear in SMILES notation.

For experiment [1], the system named is immortalized megakaryocyte line (SeV2-MKCL). Put plainly: Platelet production: static culturing of immortalized megakaryocyte line. Type of experiment: cell-based. The note with it: compound final concentration 0.1 μM, static culturing 6 to 7 days, control (DMSO) set to 1; platelets = CD41, CD42b and CD42a-positive cells. The gist of the method: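 SeV2-MKCL cells, washed free of doxycycline to stop forced expression, seeded at 1×10^5 cells/mL in IMDM-based medium with compound (final 0.1 μM) or DMSO, static culture 6–7 days, 37° C., 5% CO2. CD41/CD42a/CD42b-positive platelets counted by bead-corrected flow cytometry; platelets per megakaryocyte expressed as fold over DMSO control.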

Experiment [2] addresses T1, aryl hydrocarbon receptor (AhR) (Homo sapiens, UniProt P35869).
T1 construct: DRE-Luc HepG2 cells subcultured in a 225 cm^2 flask; endogenous in cells; host or cells: HepG2 (ATCC), stably transfected with the reporter hCYP1A1/pGL4.27 (DRE-Luc HepG2)
T1 sequence (P35869 11-848): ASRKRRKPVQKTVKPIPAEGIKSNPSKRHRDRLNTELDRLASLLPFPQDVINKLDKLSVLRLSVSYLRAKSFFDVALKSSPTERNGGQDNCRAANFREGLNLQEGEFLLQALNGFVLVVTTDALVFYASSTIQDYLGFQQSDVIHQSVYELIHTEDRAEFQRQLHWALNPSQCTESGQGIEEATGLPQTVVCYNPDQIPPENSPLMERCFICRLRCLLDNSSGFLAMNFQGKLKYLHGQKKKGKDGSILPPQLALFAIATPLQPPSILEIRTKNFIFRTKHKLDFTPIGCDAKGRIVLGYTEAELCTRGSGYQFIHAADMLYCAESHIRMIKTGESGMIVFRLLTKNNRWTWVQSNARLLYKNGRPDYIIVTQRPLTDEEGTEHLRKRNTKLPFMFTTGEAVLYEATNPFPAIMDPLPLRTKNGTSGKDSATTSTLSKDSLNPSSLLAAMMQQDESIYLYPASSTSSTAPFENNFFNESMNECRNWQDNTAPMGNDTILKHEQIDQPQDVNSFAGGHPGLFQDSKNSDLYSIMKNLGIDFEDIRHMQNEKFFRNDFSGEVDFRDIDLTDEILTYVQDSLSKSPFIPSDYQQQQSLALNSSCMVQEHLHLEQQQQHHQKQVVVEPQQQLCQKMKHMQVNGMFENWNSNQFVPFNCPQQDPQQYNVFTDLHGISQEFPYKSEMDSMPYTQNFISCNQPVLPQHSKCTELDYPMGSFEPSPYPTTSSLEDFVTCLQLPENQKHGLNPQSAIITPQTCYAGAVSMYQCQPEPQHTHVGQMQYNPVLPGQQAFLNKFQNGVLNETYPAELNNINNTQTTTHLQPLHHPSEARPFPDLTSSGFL
Nature of the experiment: AhR reporter gene assay (aryl hydrocarbon receptor antagonist activity, DRE-Luc HepG2 cells, TCDD-stimulated luciferase). Format: cell-based. The gist of the method: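 HepG2 cells stably carrying a human CYP1A1 promoter/DRE-driven luciferase reporter were pretreated with compound for 24 h at 37°C. TCDD (5×10^−10 M in the added solution) was then added for a further 24 h. Firefly luciferase luminescence was read as the measure of antagonism.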
A general note: Reporter assays use an easily measured gene product as a stand-in for the process of interest.

Regarding `C[C@@H]1CSc2nc3c(NCCc4ccc(O)c(-c5ccccc5)c4)nc(-c4cncc(C#N)c4)nc3n21` [Example 50], in experiment [1], the “Static (vs veh): fold increase of platelet production efficiency (PLT/MK)” value (“Static (vs veh): fold increase” below) is listed as 6.6. In experiment [2], this compound yielded an IC50 of 0.7 nM.

For `CC1(C)CSc2nc3c(NCCc4ccc(O)c(-c5ccccc5F)c4)nc(-c4ccc5nccn5c4)nc3n21` [Example 52], the “Static (vs veh): fold increase” value in experiment [1] is 5.3. The compound also yielded an IC50 in experiment [2] of 1.8 nM.

As for `CC1(C)CSc2nc3c(NCCc4ccc(O)c(-c5cccc(F)c5)c4)nc(-c4ccc5nccn5c4)nc3n21` [Example 53], the “Static (vs veh): fold increase” value in experiment [1] is listed as 5.3. This compound came in with an IC50 in experiment [2] of 1.2 nM.

Consider `CC1(C)COc2nc3c(NCCc4ccc(O)c(-c5cc(C#N)ccc5F)c4)nc(-c4cncc(F)c4)nc3n21` [Example 54], for which the “Static (vs veh): fold increase” value in experiment [1] is 5.9. In addition, 4.1 nM corresponded to half-maximal inhibition in experiment [2] (IC50).

On to `CC1(C)COc2nc3c(NCCc4ccc(O)c(-c5cccc(C#N)c5F)c4)nc(-c4cncc(F)c4)nc3n21` [Example 55], for which, in experiment [1], the “Static (vs veh): fold increase” value came to 6.8. The same compound gave an IC50 in experiment [2] of 1.2 nM.

For `CC1(C)COc2nc3c(NCCc4ccc(O)c(-c5cc(F)cc(C#N)c5)c4)nc(-c4cncc(F)c4)nc3n21` [Example 56], in experiment [1], the “Static (vs veh): fold increase” value is recorded as 6.5. The compound further had an IC50 in experiment [2] of 13 nM.

For `CC1(C)CSc2nc3c(NCCc4ccc(O)c(-c5cccc(C#N)c5)c4)nc(-c4cncc(F)c4)nc3n21` [Example 57], the “Static (vs veh): fold increase” value in experiment [1] is 4.9. This compound also registered an IC50 in experiment [2] of 0.39 nM.

Regarding `C[C@@H]1CSc2nc3c(NCCc4ccc(O)c(-c5cccc(C#N)c5)c4)nc(-c4cncc(F)c4)nc3n21` [Example 58], the “Static (vs veh): fold increase” value in experiment [1] is 5.1. Besides, the IC50 in experiment [2] came to 0.46 nM.

Regarding `CC1(C)COc2nc3c(NCCc4ccc(O)c(-c5cccc(C#N)c5)c4)nc(-c4cncc(C#N)c4)nc3n21` [Example 59], the “Static (vs veh): fold increase” value in experiment [1] turned out to be 5.7. The compound further gave an IC50 in experiment [2] of 2.5 nM.

Regarding `CC1(C)CSc2nc3c(NCCc4ccc(O)c(-c5cccc(C#N)c5)c4)nc(-c4cncc(C#N)c4)nc3n21` [Example 60], the “Static (vs veh): fold increase” value in experiment [1] was found to be 3.4. In experiment [2], this compound had an IC50 of 0.43 nM.

`C[C@@H]1CSc2nc3c(NCCc4ccc(O)c(-c5cccc(C#N)c5)c4)nc(-c4cncc(C#N)c4)nc3n21` [Example 61]: the “Static (vs veh): fold increase” value in experiment [1] came to 3.9. In addition, the IC50 in experiment [2] was determined as 0.71 nM.

As to `CC1(C)COc2nc3c(NCCc4ccc(O)c(-c5cccc(C#N)c5)c4)nc(-c4cncc(C(F)F)c4)nc3n21` [Example 62, 3-[5-[2-[[2-[5-(difluoromethyl)pyridin-3-yl]-8,8-dimethyl-7H-purino[8,9-b][1,3]oxazol-4-yl]amino]ethyl]-2-hydroxyphenyl]benzonitrile], in experiment [1], the “Static (vs veh): fold increase” value is on record as 5.1. The same compound returned an IC50 in experiment [2] of 1.9 nM.

For `CC1(C)COc2nc3c(NCCc4ccc(O)c(-c5cccc(C#N)c5)c4)nc(-c4ccc5nccn5c4)nc3n21` [Example 63], the “Static (vs veh): fold increase” value in experiment [1] was 4.8. In addition, it took 17 nM to reach half-maximal inhibition in experiment [2] (IC50).

In the case of `CC1(C)COc2nc3c(NCCc4ccc(O)c(-c5cccc(C#N)c5)c4)nc(-c4ccnc(F)c4)nc3n21` [Example 64], the “Static (vs veh): fold increase” value in experiment [1] is reported as 3.7. The same compound had an IC50 in experiment [2] of 5.7 nM.

For the compound `CC1(C)COc2nc3c(NCCc4ccc(O)c(-c5cc(C#N)ccc5F)c4)nc(-c4cncc(C#N)c4)nc3n21` [Example 65], in experiment [1], the “Static (vs veh): fold increase” value amounted to 3.3. Further, in experiment [2], the IC50 was 3.9 nM.

`Cc1cncc(-c2nc(NCCc3ccc(O)c(-c4cc(C#N)ccc4F)c3)c3nc4n(c3n2)C(C)(C)CO4)c1` [Example 66]: the “Static (vs veh): fold increase” value in experiment [1] is given as 4.8. The same compound returned an IC50 in experiment [2] of 8.1 nM.

On to `CC1(C)COc2nc3c(NCCc4ccc(O)c(-c5cccc(C#N)c5F)c4)nc(-c4cncc(C#N)c4)nc3n21` [Example 67], for which the “Static (vs veh): fold increase” value in experiment [1] was 2.9. In experiment [2], this compound had an IC50 of 2.4 nM.

Turning to `Cc1cncc(-c2nc(NCCc3ccc(O)c(-c4cccc(C#N)c4F)c3)c3nc4n(c3n2)C(C)(C)CO4)c1` [Example 68], the “Static (vs veh): fold increase” value in experiment [1] was 3.2. Moreover, in experiment [2], the IC50 stood at 2.8 nM.

With `CC1(C)COc2nc3c(NCCc4ccc(O)c(-c5cc(F)cc(C#N)c5)c4)nc(-c4cncc(C#N)c4)nc3n21` [Example 69], in experiment [1], the “Static (vs veh): fold increase” value was 4.7. This compound also registered an IC50 in experiment [2] of 13 nM.

For the compound `C[C@@H]1CSc2nc3c(NCCc4ccc(O)c(-c5cncc(F)c5)c4)nc(-c4cncc(F)c4)nc3n21` [Example 71], the “Static (vs veh): fold increase” value in experiment [1] is on record as 7.2. The compound further yielded an IC50 in experiment [2] of 4.7 nM.

For `Cc1cncc(-c2cc(CCNc3nc(-c4cncc(F)c4)nc4c3nc3n4C(C)(C)CO3)ccc2O)c1` [Example 72], the “Static (vs veh): fold increase” value in experiment [1] is 6.8. In experiment [2], the midpoint of inhibition, the IC50, lay at 9.8 nM.

As to `Cc1cncc(-c2cc(CCNc3nc(-c4cncc(F)c4)nc4c3nc3n4C(C)(C)CS3)ccc2O)c1` [Example 73], the “Static (vs veh): fold increase” value in experiment [1] turned out to be 7.9. The compound further displayed an IC50 in experiment [2] of 7.3 nM.

Regarding `Cc1cncc(-c2cc(CCNc3nc(-c4cncc(F)c4)nc4c3nc3n4[C@H](C)CS3)ccc2O)c1` [Example 74], in experiment [1], the “Static (vs veh): fold increase” value was determined as 3.5. In experiment [2], this compound showed an IC50 of 4.7 nM.

On to `CC1(C)CSc2nc3c(NCCc4ccc(O)c(-c5cncc(C#N)c5)c4)nc(-c4cncc(F)c4)nc3n21` [Example 76], for which the “Static (vs veh): fold increase” value in experiment [1] amounted to 2.4. Besides, in experiment [2], inhibition was half-maximal at 5.7 nM (IC50).

In the case of `C[C@@H]1COc2nc3c(NCCc4ccc(O)c(-c5cncc(C#N)c5)c4)nc(-c4cncc(F)c4)nc3n21` [Example 77], the “Static (vs veh): fold increase” value in experiment [1] turned out to be 3.5. The same compound yielded an IC50 in experiment [2] of 9.2 nM.

Regarding `CC1(C)COc2nc3c(NCCc4ccc(O)c(-c5cccc(S(C)(=O)=O)c5)c4)nc(-c4cncc(F)c4)nc3n21` [Example 78], the “Static (vs veh): fold increase” value in experiment [1] was 4.3. The compound further came in with an IC50 in experiment [2] of 3.9 nM.

For `CN(C)C(=O)Cc1cccc(-c2cc(CCNc3nc(-c4cncc(F)c4)nc4c3nc3n4C(C)(C)CO3)ccc2O)c1` [Example 79], the “Static (vs veh): fold increase” value in experiment [1] is recorded as 2.9. This compound yielded an IC50 in experiment [2] of 6.6 nM.

For `CC1(C)COc2nc3c(NCCc4c[nH]c5ccccc45)nc(-c4cccc(F)c4)nc3n21` [Example 85], the “Static (vs veh): fold increase” value in experiment [1] is recorded as 6.1. The compound further displayed an IC50 in experiment [2] of 27 nM.

As for `CC1(C)COc2nc3c(NCCc4c[nH]c5ccccc45)nc(-c4cccc(F)c4F)nc3n21` [Example 86], the “Static (vs veh): fold increase” value in experiment [1] is on record as 4.4. Further, the IC50 in experiment [2] was 21 nM.

As for `CC1(C)COc2nc3c(NCCc4c[nH]c5ccccc45)nc(-c4cc(F)ccc4F)nc3n21` [Example 87], the “Static (vs veh): fold increase” value in experiment [1] is given as 3.9. In experiment [2], this compound returned an IC50 of 38 nM.

Take `CC1(C)COc2nc3c(NCCc4c[nH]c5ccccc45)nc(-c4cncc(C#N)c4)nc3n21` [Example 92]: the “Static (vs veh): fold increase” value in experiment [1] was found to be 2.6. This compound also came in with a 50% inhibitory concentration (IC50) in experiment [2] of 33 nM.

For the compound `CC1(C)COc2nc3c(NCCc4c[nH]c5ccccc45)nc(-c4cccnc4)nc3n21` [Example 94], the “Static (vs veh): fold increase” value in experiment [1] worked out at 2.6. Inhibition in experiment [2] was half-maximal at 39 nM (IC50).

For `Cc1cncc(-c2nc(NCCc3c[nH]c4ccccc34)c3nc4n(c3n2)C(C)(C)CS4)c1` [Example 96], the “Static (vs veh): fold increase” value in experiment [1] is reported as 2.7. Further, 39 nM corresponded to half-maximal inhibition in experiment [2] (IC50).

For the compound `CC1(C)COc2nc3c(NCCc4c[nH]c5ccccc45)nc(-c4cncc(C(F)F)c4)nc3n21` [Example 101], the “Static (vs veh): fold increase” value in experiment [1] is 3.8. In experiment [2], this compound registered an IC50 of 29 nM.

On to `C[C@@H]1C[S+]([O-])c2nc3c(NCCc4c[nH]c5ccccc45)nc(-c4cncc(F)c4)nc3n21` (stereo partly shown) [Example 108], for which the “Static (vs veh): fold increase” value in experiment [1] worked out at 6.6. Moreover, the concentration for half-maximal inhibition (IC50) in experiment [2] came out at 4.1 nM.
